Reference: patent US20080146656A1, “Use of a steroid sulphatase inhibitor for inhibiting the synthesis of androstenedione and/or testosterone” (priority 2005, published 2008)

Assays:
[1] = system: serum androstenedione, testosterone, E1, E2, DHEAS and DHEA; assay: Phase I trial: serum steroid hormone concentrations after oral STX64; type: in vivo, humans
Experimental: The assay for the determination of androstenedione, testosterone, E1 and E2 was the gas chromatographic tandem mass spectroscopic method of Wang et al., (2005). Recombinant cell ultra-sensitive bioassay for measurements of estrogens in postmenopausal women. J Clin Endocrinol Metab (In press).
(§1) In the Phase I trial STX64 (5 mg or 20 mg) was administered orally as a single test dose on day 1 of the trial. Twenty four hours (24 h) later a blood sample was taken to evaluate STS activity in peripheral blood lymphocytes (PBLs) and also to measure steroid hormone concentrations. On day 8 of the trial patients received daily dosing for 5 days with a further blood sample being collected at the end of this period on day 12 (D12).
Serum concentrations of the steroids listed below were measured: […]

[2] = biological target: T1, steroid sulphatase (STS) (Homo sapiens, UniProt P08842); assay: Phase I trial: STS activity in peripheral blood lymphocytes after oral STX64; type: in vivo, humans
T1 construct: endogenous in cells; host or cells: peripheral blood lymphocytes (PBLs) of patients dosed orally with STX64
T1 sequence (P08842 22-583): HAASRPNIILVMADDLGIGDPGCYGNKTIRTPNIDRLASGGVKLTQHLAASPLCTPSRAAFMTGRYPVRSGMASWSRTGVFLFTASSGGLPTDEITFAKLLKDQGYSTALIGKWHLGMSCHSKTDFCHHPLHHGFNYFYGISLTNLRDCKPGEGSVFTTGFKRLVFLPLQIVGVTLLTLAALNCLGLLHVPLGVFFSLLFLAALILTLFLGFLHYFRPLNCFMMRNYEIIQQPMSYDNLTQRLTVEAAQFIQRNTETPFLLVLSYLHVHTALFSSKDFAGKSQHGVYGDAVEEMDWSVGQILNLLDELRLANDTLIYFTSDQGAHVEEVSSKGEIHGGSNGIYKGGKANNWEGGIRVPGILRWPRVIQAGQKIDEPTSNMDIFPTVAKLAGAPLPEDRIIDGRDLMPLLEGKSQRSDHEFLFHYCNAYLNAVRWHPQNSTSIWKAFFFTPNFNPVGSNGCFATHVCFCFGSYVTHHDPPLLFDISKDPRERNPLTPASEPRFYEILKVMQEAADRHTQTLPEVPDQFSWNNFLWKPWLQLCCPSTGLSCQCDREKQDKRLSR
Experimental: as §1
STS activity was measured in PBLs isolated from 10 ml blood collected using a vacutainer. The enzyme in the cells was solubilized with phosphate-buffered saline/Triton X-100 and STS activity measured using a physiological (2-3 nM) substrate concentration of ^3H estrone sulphate [^3H-E1S] over a 20 h period.

[3] = system: plasma androstenedione; oestrone sulphate (E1S) to oestrone (E1) ratio; assay: Male volunteer study: plasma steroids after EMATE; conditions: 40 mg
[4] = biological target: T2, STS (Homo sapiens, UniProt P08842); assay: Male volunteer study: STS activity after EMATE; type: in vivo, volunteer subject; conditions: 40 mg, FIG. 12
T2 construct: endogenous in cells; host or cells: volunteer subject
T2 sequence (P08842 22-583): T1 sequence (P08842 22-583)

Row | Structure (SMILES) | serum androstenedione concentrations ([1]; 5 mg and 20 mg doses, FIG. 11 (ii)) | serum testosterone concentrations ([1]; 5 mg and 20 mg doses, FIG. 11 (iii)) | serum androstenedione concentration ([1]; 24 h and day 12 time points after administration, FIG. 3) | serum testosterone concentration ([1]; 24 h and day 12 time points after administration, FIG. 4) | serum E1 concentration ([1]; Phase I trial, FIG. 5) | serum E2 concentration ([1]; Phase I trial, FIG. 6) | ratios of DHEAS: DHEA ([1]; both the 5 mg and 20 mg doses, FIG. 11 (i)) | serum Adione concentration ([1]; individual patient, 24 h after initial single dose, FIGS. 7 and 9) | Adione concentrations ([1]; individual patient, following daily dosing for 5 days (D5+8 h), FIGS. 7 and 9) | inhibition at 5 mg ([2]; 5 mg dose, read-out: inhibition of steroid sulphatase (STS) activity, as measured in peripheral blood lymphocytes) [%] | inhibition at 20 mg ([2]; 20 mg dose, read-out: inhibition of steroid sulphatase (STS) activity, as measured in peripheral blood lymphocytes) [%] | STS activity, as measured in PBLs ([2]; 24 h after the test dose and on day 12 of the trial, oral 5 mg or 20 mg, FIG. 2) | persistence of the reduction in plasma androstenedione concentration [3] | reduction in the plasma androstenedione concentration [3] | oestrone sulphate (E1S) to oestrone (E1) ratio ([3]; FIG. 12) | STS activity [4]
1 | NS(=O)(=O)Oc1ccc2c3c(c(=O)oc2c1)CCCCC3 [STX64] | marked decreases | marked decreases | decreased significantly | decreased significantly | significant decreases | significant decreases | marked increase | marked decrease | further decrease | > 90 | > 90 | almost completely inhibited | – | – | – | –
2 | C[C@]12CC[C@@H]3c4ccc(OS(N)(=O)=O)cc4CC[C@H]3[C@@H]1CCC2=O [EMATE, oestrone-3-O-sulphamate] | – | – | – | – | – | – | – | – | – | – | – | – | up to 15 days | 20-30% | marked increase | almost completely inhibited
